Measurements reported in patent publication US20230151025A1, “SUBSTITUTED THIAZOLOPYRIDINES, SALTS THEREOF AND THEIR USE AS HERBICIDALLY ACTIVE SUBSTANCES” (Bayer Aktiengesellschaft, priority 2020, published 2023).

System: Abutilon theophrasti (ABUTH)
Test: Herbicidal pre-emergence action (A), 1280 g/ha
Type: in vivo
Conditions: visual grading after ca. 3 weeks vs untreated controls, 100% = plants have died off, 0% = as control plants
Summary of the method: (§1)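 Visual grading of plant damage in percent (0% as untreated control, 100% dead) was done about 3 weeks after treatment. Compounds, as WP or EC in water with 0.5% additive, had been sprayed at 600 l/ha onto the covering soil of freshly sown sandy loam pots.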

Structure (SMILES)	ABUTH, herbicidal effect in percent (%)
Fc1cccc(-c2nc3ncsc3cc2Cl)c1F [Example I-114]	90%

System: Alopecurus myosuroides (ALOMY)
Test: Herbicidal pre-emergence action (A), 1280 g/ha
Type: in vivo
Conditions: visual grading after ca. 3 weeks vs untreated controls, 100% = plants have died off, 0% = as control plants
Summary of the method: as §1

Structure (SMILES)	ALOMY, herbicidal effect in percent (%)
Fc1cccc(-c2nc3ncsc3cc2Cl)c1F [Example I-114]	100%

System: Amaranthus retroflexus (AMARE)
Test: Herbicidal pre-emergence action (A), 1280 g/ha
Type: in vivo
Conditions: visual grading after ca. 3 weeks vs untreated controls
Summary of the method: as §1

Structure (SMILES)	herbicidal effect AMARE
Fc1cccc(-c2nc3ncsc3cc2Cl)c1F [Example I-114]	90%

System: Echinochloa crus-galli (ECHCG)
Test: Herbicidal pre-emergence action (A), 1280 g/ha
Type: in vivo
Conditions: visual grading after ca. 3 weeks vs untreated controls, 100% = plants have died off, 0% = as control plants
Summary of the method: as §1

Structure (SMILES)	ECHCG, herbicidal effect in percent (%)
Fc1cccc(-c2nc3ncsc3cc2Cl)c1F [Example I-114]	100%

System: Kochia scoparia (KCHSC; Bassia scoparia)
Test: Herbicidal pre-emergence action (A), 1280 g/ha
Type: in vivo
Conditions: visual grading after ca. 3 weeks vs untreated controls
Summary of the method: as §1

Structure (SMILES)	herbicidal effect KCHSC
Fc1cccc(-c2nc3ncsc3cc2Cl)c1F [Example I-114]	90%

System: Lolium rigidum (LOLRI)
Test: Herbicidal pre-emergence action (A), 1280 g/ha
Type: in vivo
Conditions: visual grading after ca. 3 weeks vs untreated controls, 100% = plants have died off, 0% = as control plants
Summary of the method: as §1

Structure (SMILES)	LOLRI, herbicidal effect in percent (%)
Fc1cccc(-c2nc3ncsc3cc2Cl)c1F [Example I-114]	100%

System: Matricaria inodora (MATIN)
Test: Herbicidal pre-emergence action (A), 1280 g/ha
Type: in vivo
Conditions: visual grading after ca. 3 weeks vs untreated controls
Summary of the method: as §1

Structure (SMILES)	herbicidal effect MATIN
Fc1cccc(-c2nc3ncsc3cc2Cl)c1F [Example I-114]	90%

System: Poa annua (POAAN)
Test: Herbicidal pre-emergence action (A), 1280 g/ha
Type: in vivo
Conditions: visual grading after ca. 3 weeks vs untreated controls, 100% = plants have died off, 0% = as control plants
Summary of the method: as §1

Structure (SMILES)	POAAN, herbicidal effect in percent (%)
Fc1cccc(-c2nc3ncsc3cc2Cl)c1F [Example I-114]	100%

System: Setaria viridis (SETVI)
Test: Herbicidal pre-emergence action (A), 1280 g/ha
Type: in vivo
Conditions: visual grading after ca. 3 weeks vs untreated controls
Summary of the method: as §1

Structure (SMILES)	herbicidal effect SETVI
Fc1cccc(-c2nc3ncsc3cc2Cl)c1F [Example I-114]	100%

System: Stellaria media (STEME)
Test: Herbicidal pre-emergence action (A), 1280 g/ha
Type: in vivo
Conditions: visual grading after ca. 3 weeks vs untreated controls
Summary of the method: as §1

Structure (SMILES)	herbicidal effect STEME
Fc1cccc(-c2nc3ncsc3cc2Cl)c1F [Example I-114]	90%

System: Veronica persica (VERPE)
Test: Herbicidal pre-emergence action (A), 1280 g/ha
Type: in vivo
Conditions: visual grading after ca. 3 weeks vs untreated controls
Summary of the method: as §1

Structure (SMILES)	herbicidal effect VERPE
Fc1cccc(-c2nc3ncsc3cc2Cl)c1F [Example I-114]	100%

System: Abutilon theophrasti (ABUTH)
Test: Herbicidal post-emergence action (B), 1280 g/ha
Type: in vivo
Conditions: rated visually after about 3 weeks vs untreated controls
Summary of the method: (§2)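 Greenhouse-grown weeds at the one-leaf stage received a foliar spray of the formulated compound (WP or EC, 0.5% additive, 600 L/ha). Damage was scored visually after about 3 weeks on a 0–100% scale against untreated plants.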

Structure (SMILES)	herbicidal activity ABUTH
Fc1cccc(-c2nc3ncsc3cc2Cl)c1F [Example I-114]	90%

System: Alopecurus myosuroides (ALOMY)
Test: Herbicidal post-emergence action (B), 1280 g/ha
Type: in vivo
Conditions: rated visually after about 3 weeks vs untreated controls
Summary of the method: as §2

Structure (SMILES)	herbicidal activity ALOMY
Fc1cccc(-c2nc3ncsc3cc2Cl)c1F [Example I-114]	90%

System: Amaranthus retroflexus (AMARE)
Test: Herbicidal post-emergence action (B), 1280 g/ha
Type: in vivo
Conditions: rated visually after about 3 weeks vs untreated controls
Summary of the method: as §2

Structure (SMILES)	herbicidal activity AMARE
Fc1cccc(-c2nc3ncsc3cc2Cl)c1F [Example I-114]	90%

System: Echinochloa crus-galli (ECHCG)
Test: Herbicidal post-emergence action (B), 1280 g/ha
Type: in vivo
Conditions: rated visually after about 3 weeks vs untreated controls
Summary of the method: as §2

Structure (SMILES)	herbicidal activity ECHCG
Fc1cccc(-c2nc3ncsc3cc2Cl)c1F [Example I-114]	90%

System: Kochia scoparia (KCHSC; Bassia scoparia)
Test: Herbicidal post-emergence action (B), 1280 g/ha
Type: in vivo
Conditions: not given
Summary of the method: as §2

Structure (SMILES)	herbicidal effect KCHSC
Fc1cccc(-c2nc3ncsc3cc2Cl)c1F [Example I-114]	90%

System: Setaria viridis (SETVI)
Test: Herbicidal post-emergence action (B), 1280 g/ha
Type: in vivo
Conditions: rated visually after about 3 weeks vs untreated controls
Summary of the method: as §2

Structure (SMILES)	herbicidal activity SETVI
Fc1cccc(-c2nc3ncsc3cc2Cl)c1F [Example I-114]	90%

System: Veronica persica (VERPE)
Test: Herbicidal post-emergence action (B), 1280 g/ha
Type: in vivo
Conditions: not given
Summary of the method: as §2

Structure (SMILES)	herbicidal effect VERPE
Fc1cccc(-c2nc3ncsc3cc2Cl)c1F [Example I-114]	90%

System: Alopecurus myosuroides (ALOMY)
Test: Herbicidal pre-emergence action (C), 320 g/ha
Type: in vivo
Conditions: ca. 3 weeks
Text: (§3) ABUTH: Abutilon theophrasti AGSTE: Agrostis tenuis ALOMY: Alopecurus myosuroides AMARE Amaranthus retroflexus DIGSA: Digitaria sanguinalis ECHCG: Echinochloa crus-galli KCHSC: Kochia scoparia LOLRI: Lolium rigidum MATIN: Matricaria inodora POAAN: Poa annua POLCO: Polygonum convolvulus SETVI: Setaria viridis STEME: Stellaria media VERPE: Veronica persica VIOTR: Viola tricolor
(§4) Seeds of mono- and dicotyledonous weed plants and crop plants were sown, in plastic or organic planting pots, in sandy loam and covered with soil. The compounds according to the invention, formulated in the form of wettable powders (WP) or as emulsifiable concentrates (EC), were applied to the surface of the covering soil as aqueous suspension or emulsion, with the addition of 0.5% of an additive, at an application rate of 600 l of water/ha (converted).
(§5) Following treatment, the pots were placed in a greenhouse and kept under optimum growth conditions for the test plants. The visual grading of the damage to the test plants was carried out after ca. 3 weeks in comparison to untreated controls (herbicidal effect in percent (%): 100% effect=plants have died off, 0% effect=as control plants).
(§6) Tables C1 to C13 below show the effects of selected compounds of the general formula (I) according to table 1 on various harmful plants and an application rate corresponding to 320 g/ha obtained by the experimental procedure mentioned above.

Structure (SMILES)	herbicidal effect ALOMY
Fc1cccc(-c2nc3ncsc3cc2Cl)c1F [Example I-114]	90%

System: Amaranthus retroflexus (AMARE)
Test: Herbicidal pre-emergence action (C), 320 g/ha
Type: in vivo
Conditions: ca. 3 weeks
Text: as §3, §4, §5, §6

Structure (SMILES)	herbicidal effect AMARE
Fc1cccc(-c2nc3ncsc3cc2Cl)c1F [Example I-114]	90%

System: Echinochloa crus-galli (ECHCG)
Test: Herbicidal pre-emergence action (C), 320 g/ha
Type: in vivo
Conditions: ca. 3 weeks
Text: as §3, §4, §5, §6

Structure (SMILES)	herbicidal effect ECHCG
Fc1cccc(-c2nc3ncsc3cc2Cl)c1F [Example I-114]	100%

System: Lolium rigidum (LOLRI)
Test: Herbicidal pre-emergence action (C), 320 g/ha
Type: in vivo
Conditions: ca. 3 weeks
Text: as §3, §4, §5, §6

Structure (SMILES)	herbicidal effect LOLRI
Fc1cccc(-c2nc3ncsc3cc2Cl)c1F [Example I-114]	100%

System: Matricaria inodora (MATIN)
Test: Herbicidal pre-emergence action (C), 320 g/ha
Type: in vivo
Conditions: ca. 3 weeks
Text: as §3, §4, §5, §6

Structure (SMILES)	herbicidal effect MATIN
Fc1cccc(-c2nc3ncsc3cc2Cl)c1F [Example I-114]	80%

System: Setaria viridis (SETVI)
Test: Herbicidal pre-emergence action (C), 320 g/ha
Type: in vivo
Conditions: ca. 3 weeks
Text: as §3, §4, §5, §6

Structure (SMILES)	herbicidal effect SETVI
Fc1cccc(-c2nc3ncsc3cc2Cl)c1F [Example I-114]	90%

System: Veronica persica (VERPE)
Test: Herbicidal pre-emergence action (C), 320 g/ha
Type: in vivo
Conditions: ca. 3 weeks
Text: as §3, §4, §5, §6

Structure (SMILES)	herbicidal effect VERPE
Fc1cccc(-c2nc3ncsc3cc2Cl)c1F [Example I-114]	80%
